Measured values as given in PubChem BioAssay AID248 (DTP/NCI, 2004).
Several values for one entry are separate records, joined by “and”; a condition that tells them apart may be missing. Identical values can stand only once. Inconclusive results and toxic doses are left out. No stated cut-off is given here; in the data, active means T/C of 150% or more; inactive means T/C below 125%.

Test system: L1210 leukemia ip in BDF1 mice, survival T/C
Experiment: NCI In Vivo Anticancer Drug Screen. Data for tumor model L1210 Leukemia (intraperitoneal) in B6D2F1 (BDF1) mice
Settings: endpoint: mean survival time, higher = longer survival
How it was run: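 Mice bearing the transplanted tumor received compound or vehicle. Survival of the treated group was divided by that of the vehicle-treated control group to give the ratio.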

[1] = dose: 100.0 mg/kg/injection, schedule: Q01DX001 (ip), vehicle: saline
[2] = dose: 100.0 mg/kg/injection, schedule: Q01DX009 (ip), vehicle: saline
[3] = dose: 100.0 mg/kg/injection, schedule: Q04DX003 (ip), vehicle: saline
[4] = dose: 200.0 mg/kg/injection, schedule: Q01DX009 (ip), vehicle: saline
[5] = dose: 200.0 mg/kg/injection, schedule: Q04DX003 (ip), vehicle: saline
[6] = dose: 400.0 mg/kg/injection, schedule: Q01DX009 (ip), vehicle: saline
[7] = dose: 100.0 mg/kg/injection, schedule: Q01DX001 (ip), vehicle: saline with Tween-80
[8] = dose: 200.0 mg/kg/injection, schedule: Q01DX001 (ip), vehicle: saline with Tween-80
[9] = dose: 400.0 mg/kg/injection, schedule: Q01DX001 (ip), vehicle: saline with Tween-80
[10] = dose: 200.0 mg/kg/injection, schedule: Q01DX001 (ip), vehicle: saline
[11] = dose: 100.0 mg/kg/injection, schedule: Q04DX002 (ip), vehicle: Klucel (hydroxypropylcellulose) (HPC)
[12] = dose: 200.0 mg/kg/injection, schedule: Q04DX002 (ip), vehicle: Klucel (hydroxypropylcellulose) (HPC)
[13] = dose: 100.0 mg/kg/injection, schedule: Q04DX003 (ip), vehicle: saline with Tween-80
[14] = dose: 50.0 mg/kg/injection, schedule: Q01DX009 (ip), vehicle: Klucel (hydroxypropylcellulose) (HPC)
[15] = dose: 100.0 mg/kg/injection, schedule: Q01DX009 (ip), vehicle: Klucel (hydroxypropylcellulose) (HPC)
[16] = dose: 200.0 mg/kg/injection, schedule: Q01DX009 (ip), vehicle: Klucel (hydroxypropylcellulose) (HPC)
[17] = dose: 400.0 mg/kg/injection, schedule: Q01DX001 (ip), vehicle: saline
[18] = dose: 100.0 mg/kg/injection, schedule: Q01DX009 (ip), vehicle: saline with Tween-80
[19] = dose: 200.0 mg/kg/injection, schedule: Q01DX009 (ip), vehicle: saline with Tween-80
[20] = dose: 100.0 mg/kg/injection, schedule: Q04DX002 (ip), vehicle: saline with Tween-80
[21] = dose: 200.0 mg/kg/injection, schedule: Q04DX002 (ip), vehicle: saline with Tween-80
[22] = dose: 400.0 mg/kg/injection, schedule: Q04DX002 (ip), vehicle: saline with Tween-80
[23] = dose: 200.0 mg/kg/injection, schedule: Q04DX003 (ip), vehicle: saline with Tween-80
[24] = dose: 400.0 mg/kg/injection, schedule: Q04DX003 (ip), vehicle: saline with Tween-80

Measured: T/C

NNC(=O)COc1ccccc1
inactive: [1] 106 % of control

Cc1cc(N)no1
inactive: [2] 100 % of control | [3] 108 % of control | [4] 104 % of control | [5] 106 % of control | [6] 104 % of control | dose: 400.0 mg/kg/injection, schedule: Q04DX003 (ip), vehicle: saline 108 % of control

CCOc1ccc(Br)cc1/C=C(\C#N)c1ccc([N+](=O)[O-])cc1
inactive: dose: 25.0 mg/kg/injection, schedule: Q01DX009 (ip), vehicle: saline with Tween-80 92 % of control

COc1ccc(CCN(C)C2c3ccccc3C=Cc3ccccc32)cc1OC
inactive: [7] 103 % of control | [8] 107 % of control | [9] 98 % of control

COc1ccc2nc(N=Nc3c(N)nc(N)nc3N)sc2c1
inactive: [1] 96 % of control | [10] 105 % of control

CC(=O)c1ccc2c(c1)sc1cc(C(C)=O)ccc12
inactive: dose: 50.0 mg/kg/injection, schedule: Q01DX001 (ip), vehicle: carboxymethylcellulose (CMC) 96 % of control | dose: 100.0 mg/kg/injection, schedule: Q01DX001 (ip), vehicle: carboxymethylcellulose (CMC) 100 % of control | dose: 200.0 mg/kg/injection, schedule: Q01DX001 (ip), vehicle: carboxymethylcellulose (CMC) 90 % of control | dose: 400.0 mg/kg/injection, schedule: Q01DX001 (ip), vehicle: carboxymethylcellulose (CMC) 90 % of control

O=C(CC(O)c1ccccc1)Nc1cccnc1 (stereo not drawn)
inactive: dose: 100.0 mg/kg/injection, schedule: Q01DX001 (ip), vehicle: other 96 % of control

C[N+]1(CC2CO2)CCOCC1 (stereo not drawn)
inactive: dose: 75.0 mg/kg/injection, schedule: Q01DX001 (ip), vehicle: saline 109 % of control | dose: 150.0 mg/kg/injection, schedule: Q01DX001 (ip), vehicle: saline 106 % of control | dose: 300.0 mg/kg/injection, schedule: Q01DX001 (ip), vehicle: saline 96 % of control

COc1ccc(CCOC(C)=O)cc1OC
inactive: [11] 102 % of control | [12] 97 % of control | dose: 400.0 mg/kg/injection, schedule: Q04DX002 (ip), vehicle: Klucel (hydroxypropylcellulose) (HPC) 97 % of control

CCSC(C(O)C(O)C(O)CO)n1ccc(N)nc1=O (stereo not drawn)
inactive: dose: 100.0 mg/kg/injection, schedule: Q01DX005 (ip), vehicle: saline 101 % of control and 104 % of control | [2] 106 % of control and 109 % of control | dose: 200.0 mg/kg/injection, schedule: Q01DX005 (ip), vehicle: saline 95 % of control and 98 % of control and 101 % of control | [4] 106 % of control and 98 % of control | [6] 112 % of control and 102 % of control

CCCNc1ncc(C(=O)O)c(=O)[nH]1
inactive: [13] 93 % of control

O=NSC(c1ccccc1)(c1ccccc1)c1ccccc1
inactive: [14] 94 % of control | [15] 89 % of control | [16] 93 % of control

CN(N=O)C(=O)NCCSc1nc2ncncc2[nH]1
inactive: dose: 31.0 mg/kg/injection, schedule: Q01DX001 (ip), vehicle: carboxymethylcellulose (CMC) 87 % of control | dose: 62.0 mg/kg/injection, schedule: Q01DX001 (ip), vehicle: carboxymethylcellulose (CMC) 103 % of control | dose: 93.0 mg/kg/injection, schedule: Q01DX001 (ip), vehicle: carboxymethylcellulose (CMC) 106 % of control | dose: 187.0 mg/kg/injection, schedule: Q01DX001 (ip), vehicle: carboxymethylcellulose (CMC) 103 % of control | dose: 250.0 mg/kg/injection, schedule: Q01DX001 (ip), vehicle: carboxymethylcellulose (CMC) 103 % of control | dose: 500.0 mg/kg/injection, schedule: Q01DX001 (ip), vehicle: carboxymethylcellulose (CMC) 115 % of control | dose: 750.0 mg/kg/injection, schedule: Q01DX001 (ip), vehicle: carboxymethylcellulose (CMC) 123 % of control | dose: 1000.0 mg/kg/injection, schedule: Q01DX001 (ip), vehicle: carboxymethylcellulose (CMC) 117 % of control

O=C(Cc1ccccc1)ONC(CCCCNC(=O)OCc1ccccc1)C(=O)Nc1ccc(Cc2ccc(NC(=O)C(CCCCNC(=O)OCc3ccccc3)NC(=O)OCc3ccccc3)cc2)cc1 (stereo not drawn)
inactive: dose: 50.0 mg/kg/injection, schedule: Q01DX001 (ip), vehicle: saline 95 % of control | [1] 95 % of control | [10] 95 % of control | [17] 95 % of control

CCOC(=O)c1c[nH]c2cc(OC)ccc2c1=O
inactive: [18] 92 % of control | [19] 93 % of control

COCCCNC(=S)C(=S)NCCCOC
inactive: [11] 97 % of control | [12] 107 % of control

NC(N)=N/N=C/N/N=C/c1ccccc1O
inactive: dose: 60.0 mg/kg/injection, schedule: Q01DX Z (oral), vehicle: carboxymethylcellulose (CMC) 91 % of control | dose: 120.0 mg/kg/injection, schedule: Q01DX Z (oral), vehicle: carboxymethylcellulose (CMC) 91 % of control | dose: 240.0 mg/kg/injection, schedule: Q01DX Z (oral), vehicle: carboxymethylcellulose (CMC) 100 % of control | dose: 480.0 mg/kg/injection, schedule: Q01DX Z (oral), vehicle: carboxymethylcellulose (CMC) 100 % of control

CCOC(=O)/C(C#N)=C\c1cccc2ccccc12
inactive: [1] 98 % of control | dose: 100.0 mg/kg/injection, schedule: Q04DX003 (ip), vehicle: other 92 % of control | [10] 103 % of control | dose: 200.0 mg/kg/injection, schedule: Q04DX003 (ip), vehicle: other 92 % of control | [17] 100 % of control | dose: 400.0 mg/kg/injection, schedule: Q04DX003 (ip), vehicle: other 93 % of control

CC(=O)N(c1ccc(NC(=O)c2ccc(N3C(=O)c4ccccc4C3=O)cc2[N+](=O)[O-])cc1)c1cc[n+](C)cc1
inactive: [7] 93 % of control and 90 % of control | [20] 101 % of control and 115 % of control | [8] 93 % of control and 108 % of control | [21] 101 % of control and 113 % of control | [9] 107 % of control and 90 % of control | [22] 96 % of control and 105 % of control

CC(=O)CC(=O)Nc1cccc(Cl)c1
inactive: dose: 15.0 mg/kg/injection, schedule: Q01DX001 (ip), vehicle: carboxymethylcellulose (CMC) 108 % of control | dose: 30.0 mg/kg/injection, schedule: Q01DX001 (ip), vehicle: carboxymethylcellulose (CMC) 108 % of control

CCOc1ccc2nc(N)sc2c1
inactive: [14] 94 % of control | [15] 110 % of control | [3] 99 % of control | [16] 111 % of control | [5] 89 % of control

COC(=O)c1ccccc1N(C)C(=O)c1ccccc1
inactive: dose: 100.0 mg/kg/injection, schedule: Q04DX003 (ip), vehicle: Klucel (hydroxypropylcellulose) (HPC) 102 % of control | dose: 200.0 mg/kg/injection, schedule: Q04DX003 (ip), vehicle: Klucel (hydroxypropylcellulose) (HPC) 107 % of control | dose: 400.0 mg/kg/injection, schedule: Q04DX003 (ip), vehicle: Klucel (hydroxypropylcellulose) (HPC) 109 % of control

O=S(CCO)c1ccc(Cl)cc1 (stereo not drawn)
inactive: [20] 100 % of control and 109 % of control | [13] 118 % of control | [21] 102 % of control and 88 % of control | [23] 106 % of control | [22] 98 % of control and 103 % of control | [24] 100 % of control

CC(=O)c1cccc(NC(=O)Oc2cc(C)c(Cl)c(C)c2)c1
inactive: [7] 97 % of control | [18] 94 % of control and 92 % of control | [20] 94 % of control and 101 % of control | [13] 93 % of control | [8] 100 % of control | [19] 88 % of control and 89 % of control | [21] 93 % of control and 89 % of control | [23] 87 % of control | [9] 98 % of control | dose: 400.0 mg/kg/injection, schedule: Q01DX009 (ip), vehicle: saline with Tween-80 91 % of control | [22] 96 % of control and 101 % of control | [24] 90 % of control

CCN(CC)Cc1ccccc1COC(=O)c1cccc(Br)c1
inactive: dose: 50.0 mg/kg/injection, schedule: Q04DX002 (ip), vehicle: Klucel (hydroxypropylcellulose) (HPC) 111 % of control | [11] 118 % of control | [12] 103 % of control

CC(=O)Cc1nc(N)nc(Nc2ccc(Cl)c(Cl)c2)n1
inactive: [13] 91 % of control | [23] 96 % of control | [24] 96 % of control

N#CCC(=O)NCc1ccco1
inactive: dose: 50.0 mg/kg/injection, schedule: Q01DX009 (ip), vehicle: saline with Tween-80 106 % of control | [18] 103 % of control | [20] 104 % of control | [21] 114 % of control
